What was measured:
[1] = Active agent loading into non-lamellar particle dispersion; type: physicochemical; conditions: active agent relative to mass of total amphiphile, DGMO/GDO/Pluronic F127 54/36/10 dispersion; for % loading by equilibration: 37° C., three days; for % loading by heat treatment: autoclavation 125° C., 20 minutes
Experimental: A composition comprising DGMO (54% by weight), GDO (36% by weight) and Pluronic® F127 (10% by weight) was dispersed in 99 times its weight in water by the method of Example 2.1.
The dispersion was divided into samples and loaded with each of the active agents shown below by each of two techniques: • i) A saturated solution of active was equilibrated with the particles in dispersion at 37° C. for three days by gentle stirring on a rotating table. • ii) The samples were dispersed in a solution of excess active agent and heat treated by autoclavation at 125° C. for 20 minutes and were allowed to temperature equilibrate at 37° C. for at least one hour.
The following loadings were achieved, expressed as percentage active agent incorporated relative to the mass of total amphiphile.

[2] = Oral bioavailability of octreotide in rats (plasma OCT, competitive immunoassay); type: in vivo; conditions: rat, 0.2 mg/kg, read-out: Absolute bioavailability (F)
Experimental: On the first day of the experiment, the rats were prepared by inserting a silicon catheter (OD approx. 1 mm) in the jugular vein under isoflurane anaesthesia. The catheter was tunnelled under the skin and exteriorised between the scapulae. After surgery the rats were allowed 48 hours of recovery before dosing. The catheter was rinsed with 0.9% NaCl containing 1 mM EDTA, every morning during the recovery period.
In the morning, after approximately 16 hours of fasting (water was accessible), the animals were dosed and blood collected. The animals were allowed free access to water after dosing, but had no access to food. After the last sampling, all animals were sacrificed.
The rats were dosed intravenously through the venous catheter or by gavage by a plastic ball-tipped gavage tube. […]
The content of OCT in all plasma samples was measured by a competitive immunoassay. […] The fraction of antibody remaining in solution is removed, and the fraction bound to the immobilized peptide is quantified, the signal obtained being inversely proportional to the concentration of OCT in the sample. […]
Dose-corrected absolute bioavailability of OCT in the oral non-lamellar formulation was calculated as: Availability (F)=(AUCoral×DoseIV)/(AUCIV×Doseoral)×100 20.6—Results

Row | % loading by equilibration [1] [%] | % loading by heat treatment [1] [%] | SMILES | bioavailability [2] [%]
1 | 0.6 | 3.76 | C[C@]12CC[C@@H]3c4ccc(O)cc4C[C@@H](CCCCCCCCC[S+]([O-])CCCC(F)(F)C(F)(F)F)[C@H]3[C@@H]1CC[C@@H]2O (stereo partly shown) [Fulvestrant] | –
2 | 3.49 | 19.25 | CC(=O)N1CCN(c2ccc(OCC3COC(Cn4ccnc4)(c4ccc(Cl)cc4Cl)O3)cc2)CC1 (stereo not shown) [Ketoconazole] | –
3 | – | – | C[C@@H](O)[C@@H]1NC(=O)[C@H](CCCCN)NC(=O)[C@@H](Cc2c[nH]c3ccccc23)NC(=O)[C@H](Cc2ccccc2)NC(=O)[C@@H](NC(=O)[C@H](N)Cc2ccccc2)CSSC[C@@H](C(=O)N[C@H](CO)[C@@H](C)O)NC1=O [OCT in a saline solution, Octreotide] | ~0.04
4 | 2.99 | 12.65 | CC(=O)[C@H]1CC[C@H]2[C@@H]3CCC4=CC(=O)CC[C@]4(C)[C@H]3CC[C@]12C [Progesterone] | –

Source: US8541400B2, “Compositions forming non-lamellar dispersions” (Camurus AB, priority 2004, dated 2013)
